Reference: PubChem BioAssay AID2060616 (Molecular Pharmacology Branch, DTP, NCI, 2025)
Several values for one entry are separate records, joined by “and”; a condition that tells them apart may be missing. Identical values can stand only once.

Test system: 377384-186-R-J1-PDC complex spheroid viability
Assay: Anticancer human tumor 377384-186-R-J1-PDC patient-derived pancreatic carcinoma cell line growth inhibition [CLK]
Conditions: for viability, T/C: stronger effect = lower value; active means viability on the fitted dose curve at most 10% of control; inactive means the rest
Description: A high-throughput screen of multi-cell type tumor spheroids was designed to identify active combinations of […] and targeted small molecules. Complex spheroids include a stromal component modeled by human endothelial cells (HUVEC) and fibroblasts modeled by human mesenchymal stem cells (MSCs). The concentration ranges selected for each drug and investigational agent were based upon clinically achievable concentrations if the clinical Cmax of the agent was known.
Compounds. The drugs and investigational agents: cirtuvivint (SM08502; NSC835563), CC-671 (NSC850746), vemurafenib (NSC761431), tapotoclax (NSC804041), sotorasib (NSC818433), adagrasib (NSC831453), MRTX-1133 (NSC836407), BAY2416964 (NSC825713), copanlisib (NSC816437), inavolisib (NSC800729), abemaciclib (NSC768073), osimertinib (NSC779217), entinostat (NSC756642), eltanexor (KPT-8602, NSC794443), venetoclax (NSC766270), ceralasertib (NSC777638), bortezomib (NSC756655), olaparib (NSC753686), talazoparib (NSC767125), alisertib (NSC759677), peposertib (NSC802822), gemcitabine (NSC613327), 5-fluorouracil (NSC19893), SN-38 (NSC673596), oxaliplatin (NSC266046), paclitaxel (NSC125973), and doxorubicin (NSC123127), were obtained from the National Cancer Institute (NCI) Developmental Therapeutics Program Chemical Repository. The FDA-approved anticancer drug set is available from the Developmental Therapeutics Program at https://dtp.cancer.gov/organization/dscb/obtaining/available plates.htm. […] The stock solutions were prepared in dimethyl sulfoxide (DMSO, Sigma-Aldrich, St. Louis, MO, cat. D2650), except for the platinum complexes which were prepared in saline (Quality Biological, Gaithersburg, MD, cat. 114-055-101), at 800-fold the tested concentration and stored at -70 degrees C prior to their use. All drugs and investigational agents were tested over a range starting from a high concentration at or near the clinical Cmax and decreasing in half-log increments. If the clinical Cmax for an agent had not been determined, the highest concentration tested was 10 microM.
Cell Culture. All cells were maintained in an incubator at 37 degrees C and 5% CO2 with 95% humidity. The PDC lines were cultured according to standard operating procedures established by the NCI PDMR. Briefly, all PDCs were thawed and cultured in Matrigel-coated flasks prepared with a working solution of 1X Ham's F-12 nutrient mix, without supplementation (Invitrogen, Waltham, MA, cat. 11765054), 100 U/mL penicillin-streptomycin (Invitrogen, cat. 15140122), and 2.5% Matrigel (Corning Inc., Corning, NY, cat. 354248) for the first three passages. The 947758-054-R-J2-PDC line was cultured in 6B/Colon 1A media, which includes advanced DMEM/F-12 (Thermo Fisher Scientific, cat. 12634028), 10 mM HEPES (Thermo Fisher Scientific, cat. 15630080), 1X GlutaMAX supplement (Thermo Fisher Scientific, cat. 35050061), 0.1 mg/mL primocin (InvivoGen, cat. ant-pm-2), 10% defined fetal bovine serum, heat inactivated (HyClone Laboratories Inc., cat. SH30070.03HI), 1.25 mM N-Acetyl-L-cysteine (Sigma-Aldrich, cat. A9165), 10 mM nicotinamide (Sigma-Aldrich, cat. N0636), 1X B-27 supplement (Thermo Fisher Scientific, cat. 17504044), 1X N-2 supplement (Thermo Fisher Scientific, cat. 17502048), and 10 microM Y-27632 dihydrochloride (Tocris Bioscience, cat. 1254). The 876862-298-R-J1-PDC was cultured in 6E media, which includes all 6B/Colon 1A media components plus 50% L-WRN conditioned media (ATCC, cat. CRL-3276), 50 ng/mL recombinant human EGF recombinant protein (hEGF; Thermo Fisher Scientific, cat. PHG0311), 10 ng/mL recombinant human fibroblast growth factor 10 (hGFG-10; PeproTech, cat. 100-26), 1 ng/mL recombinant human fibroblast growth factor 2 (hFGF-2; PeproTech, cat. 100-18B), and 1 µM prostaglandin E2 (PGE2; Tocris, cat. 2296). The 227483-062-R1-J1-PDC line was cultured in Panc media, containing all 6E components except hFGF-2, with the addition of 500 nM SB-431542 (Selleckchem, cat. S1067) and 10 nM gastrin (Tocris, cat. 3006). […]
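Further: spheroids exposed to agents for 7 days before reading.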
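Wherever viability, T/C is given: luminescence signal used as a stand-in for viable cells.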

CC(C)CC(NC(=O)C(Cc1ccccc1)NC(=O)c1cnccn1)B(O)O (centres undefined) + CN1CCN(c2cc(C(=O)Nc3cc4cc(-c5cnn(C)c5)ccc4cn3)ccn2)CC1
< 0.949 nM: IC50 (curve of first compound, second compound 0.316 µM) | IC50 (curve of first compound, second compound 1 µM) | IC50 (curve of first compound, second compound 3.16 µM) | IC50 (curve of first compound, second compound 10 µM)
1.65 nM: IC50 (curve of first compound, second compound 0.1 µM)
active: viability, T/C (second compound 0.0316 µM, first compound 0.003 µM) 2.33% | viability, T/C (second compound 0.0316 µM, first compound 0.00949 µM) 0.36% | viability, T/C (second compound 0.0316 µM, first compound 0.03 µM) 0.23% | viability, T/C (second compound 0.0316 µM, first compound 0.0949 µM) 0.25% | viability, T/C (second compound 0.0316 µM, first compound 0.3 µM) 0.18% | viability, T/C (second compound 0.1 µM, first compound 0.003 µM) 1.28% | viability, T/C (second compound 0.1 µM, first compound 0.00949 µM) 0.36% | viability, T/C (second compound 0.1 µM, first compound 0.03 µM) 0.22% | viability, T/C (second compound 0.1 µM, first compound 0.0949 µM) 0.23% | viability, T/C (second compound 0.1 µM, first compound 0.3 µM) 0.22% | viability, T/C (second compound 0.316 µM, first compound 0.003 µM) 1.48% | viability, T/C (second compound 0.316 µM, first compound 0.00949 µM) 0.19% | viability, T/C (second compound 0.316 µM, first compound 0.03 µM) 0.21% | viability, T/C (second compound 0.316 µM, first compound 0.0949 µM) 0.28% | viability, T/C (second compound 0.316 µM, first compound 0.3 µM) 2.08% | viability, T/C (second compound 1 µM, first compound 0.000949 µM) 0.64% | viability, T/C (second compound 1 µM, first compound 0.003 µM) 0.47% | viability, T/C (second compound 1 µM, first compound 0.00949 µM) 0.35% | viability, T/C (second compound 1 µM, first compound 0.03 µM) 0.22% | viability, T/C (second compound 1 µM, first compound 0.0949 µM) 0.4% | viability, T/C (second compound 1 µM, first compound 0.3 µM) 0.32% | viability, T/C (second compound 3.16 µM, first compound 0.000949 µM) 1.01% | viability, T/C (second compound 3.16 µM, first compound 0.003 µM) 1.51% | viability, T/C (second compound 3.16 µM, first compound 0.00949 µM) 0.92% | viability, T/C (second compound 3.16 µM, first compound 0.03 µM) 0.56% | viability, T/C (second compound 3.16 µM, first compound 0.0949 µM) 0.48% | viability, T/C (second compound 3.16 µM, first compound 0.3 µM) 1.78% | viability, T/C (second compound 10 µM, first compound 0.000949 µM) 0.25% | viability, T/C (second compound 10 µM, first compound 0.003 µM) 0.32% | viability, T/C (second compound 10 µM, first compound 0.00949 µM) 0.24% | viability, T/C (second compound 10 µM, first compound 0.03 µM) 0.24% | viability, T/C (second compound 10 µM, first compound 0.0949 µM) 0.43% | viability, T/C (second compound 10 µM, first compound 0.3 µM) 1.64%
1.66 nM: IC50 (curve of first compound, second compound 0.0316 µM)
inactive: viability, T/C (second compound 0.0316 µM, first compound 0.000949 µM) 95.5% | viability, T/C (second compound 0.1 µM, first compound 0.000949 µM) 94.8% | viability, T/C (second compound 0.316 µM, first compound 0.000949 µM) 22.2%

CCc1c2c(nc3ccc(O)cc13)-c1cc3c(c(=O)n1C2)COC(=O)[C@]3(O)CC
active: viability, T/C (compound 0.0316 µM) 6.41% and 5.33% | viability, T/C (compound 0.1 µM) 3.96% and 2.67% | viability, T/C (compound 0.316 µM) 1.37% and 1.52% | viability, T/C (compound 1 µM) 0.82% and 0.63%
inactive: viability, T/C (compound 0.00316 µM) 30% and 30.1% | viability, T/C (compound 0.01 µM) 17.2% and 14.6%
< 3.16 nM: IC50 (curve of compound)
